Measurements published in article PMC5655053, “Pharmacological Basis of CD101 Efficacy: Exposure Shape Matters” (Antimicrobial Agents and Chemotherapy, 2017).
Several values for one entry are separate records, joined by “and”; a condition that tells them apart may be missing. Equal values may be shown once. Read-outs that look alike come from different tables or passages of the source. Numbered stars: 1 amine (or outer) side, 2 acyl side, 3 side chain; on linkers, the order of the positions; unused ones are H or OH. Bridge positions count the residues as written; N and C are the ends. Square brackets hold non-standard residues; d marks the D form. Peptide text beside a SMILES is read from it. * marks the point of attachment. Orn(4R-OH,5R-OCH2CH2NMe3+) = C[N+](C)(C)CCO[C@@H](N[*:3])[C@H](O)C[C@H](N[*:1])C(=O)[*:2]; pTerphenylCO(4''-OnC5H11) = CCCCCOc1ccc(-c2ccc(-c3ccc(C(=O)*)cc3)cc2)cc1; hTyr(3S-OH,4S-OH) = N[C@H](C(=O)O)[C@H](O)[C@@H](O)c1ccc(O)cc1; Pro(3S-OH,4S-Me) = C[C@H]1CN[C@H](C(=O)O)[C@H]1O; Hyp = O=C(O)[C@@H]1C[C@@H](O)CN1

Legend:
[1] = test system: hepatocytes of Sprague-Dawdley rats; settings: supratherapeutic (comparable) doses, 2-week repeated-dose study; cited from earlier work
Source text: The echinocandin CD101 is a novel antifungal agent with activity against Aspergillus and Candida species, including azole- and echinocandin-resistant isolates ([1], [2]). This compound is a structural analog of anidulafungin but differs in certain beneficial ways with regard to toxicological and pharmacokinetic properties.

[2] = cited from earlier work
[3] = Simulated free-drug plasma concentration-time profiles of the fractionated regimens; set-up: species or system mouse; settings: mice
Procedure: (§1) Simulated free-drug plasma concentration-time profiles of the three fractionated CD101 2 mg/kg dosing regimens are shown in Fig. 4.
(§2) Data collected from the pharmacokinetic study described above were used to develop a pharmacokinetic model describing the disposition of CD101 in mice in S-ADAPT ([21]). The developed pharmacokinetic model, along with the unbound CD101 fraction, was used to simulate free-drug concentration-time profiles for each dosing regimen administered in the front-loaded dose studies. Free-drug AUC0–168 values were calculated through numeric integration of CD101 free-drug concentration-time profiles. Relationships between changes in log10 CFU at 168 h and free-drug AUC0–168/MIC ratios were explored.

[4] = Observation for overt toxicity in mice of the front-loaded dose studies; format: in vivo, ICR mice; settings: any of the mice evaluated
Procedure: as §1
A neutropenic, murine, disseminated candidiasis model was used for the evaluation of the effects of the CD101 dosing regimens on efficacy. Male or female ICR mice (n = 5 per regimen and observation time) weighing 22 ± 2 g were rendered neutropenic by treatments using the injection of cyclophosphamide 4 days prior to infection (day −4) and 1 day prior to infection (day −1) at 150 and 100 mg/kg i.p., respectively. Neutropenia was sustained for the duration of the study with cyclophosphamide doses (100 mg/kg i.p.) administered every 48 h on days 1, 3, 5, and 7 after infection. Each animal was inoculated, using a lateral tail vein injection, with 1 × 10^3 CFU of Candida albicans (isolate R303). CD101 (or vehicle) was administered 24 h postinfection via i.p. injection. Mice were euthanized with CO2 at 168 h (7 days) following the start of treatment. Mice in the control group were euthanized 0, 24, and 48 h after administration of vehicle. Paired kidneys were aseptically harvested and homogenized, and serial dilutions were plated for colony counts to determine the fungal burden (measured in CFU per gram). Kidney counts were not determined in animals that expired prior to the scheduled sacrifice time. […]

Candida albicans R303 [5] = test: Broth microdilution susceptibility testing (CLSI M27-A3); format: cell-based; settings: C. albicans R303, CLSI M27-A3, RPMI 1640, 35°C, read at 24 h, ~50% growth inhibition, modal value of three occasions
Procedure: CD101 was supplied by Cidara Therapeutics, Inc. (San Diego, CA). Stock solutions of CD101 were prepared in dimethyl sulfoxide (DMSO) for the susceptibility testing. The vehicle used for dosing in the in vivo studies was 10% DMSO–1% Tween 20–saline solution. The challenge isolate utilized in these studies was Candida albicans R303. Susceptibility testing was done in accordance with the Clinical and Laboratory Standards Institute (CLSI) M27-A3 methods, using RPMI 1640 medium, an initial inoculum of 0.5 × 10^3 to 2.5 × 10^3 CFU/ml, and incubation at 35°C ([20]). MIC plates were read following 24 h of incubation, and MIC values are reported as concentrations resulting in prominent (∼50%) growth inhibition. Susceptibility testing was performed on three separate occasions. Final results were expressed as modal values. Quality control was performed on each day of testing using CLSI-recommended reference strains (C. krusei ATCC 6258 and C. parapsilosis ATCC 22019).

Candida albicans R303 [6] = test: Front-loaded dose studies, neutropenic murine disseminated candidiasis model; format: in vivo, ICR mice
Procedure: Fungi in the no-treatment control group grew well and reached a density of greater than 1 × 10^6 CFU/g by 48 h. The magnitudes of net change in log10 CFU from the baseline at 168 h were similar regardless of the fractionation schedule within the CD101 0.7 mg/kg and 7 mg/kg dosing groups. […] In the 7 mg/kg dose group, the magnitude of net change was greater than 2 log10 CFU reduction from the baseline at 168 h, regardless of the fractionation schedule. Conversely, results within the CD101 2 mg/kg group differed across the fractionation schedules. […] However, when this dose was front-loaded (i.e., delivered entirely on day 1), there was a greater than 2 log10 CFU reduction from the baseline at 168 h.
A neutropenic, murine, disseminated candidiasis model was used for the evaluation of the effects of the CD101 dosing regimens on efficacy. Male or female ICR mice (n = 5 per regimen and observation time) weighing 22 ± 2 g were rendered neutropenic by treatments using the injection of cyclophosphamide 4 days prior to infection (day −4) and 1 day prior to infection (day −1) at 150 and 100 mg/kg i.p., respectively. Neutropenia was sustained for the duration of the study with cyclophosphamide doses (100 mg/kg i.p.) administered every 48 h on days 1, 3, 5, and 7 after infection. Each animal was inoculated, using a lateral tail vein injection, with 1 × 10^3 CFU of Candida albicans (isolate R303). CD101 (or vehicle) was administered 24 h postinfection via i.p. injection. Mice were euthanized with CO2 at 168 h (7 days) following the start of treatment. Mice in the control group were euthanized 0, 24, and 48 h after administration of vehicle. Paired kidneys were aseptically harvested and homogenized, and serial dilutions were plated for colony counts to determine the fungal burden (measured in CFU per gram). Kidney counts were not determined in animals that expired prior to the scheduled sacrifice time. The front-loaded dose studies was performed under animal biosafety level 2 conditions in an Association for Assessment and Accreditation of Laboratory Animal Care-accredited vivarium, at Eurofins Panlabs Taiwan, Ltd., with the oversight of veterinarians to ensure compliance with the Eurofins Panlabs Institutional Animal Care and Use Committee regulations and the humane treatment of laboratory animals.

[7] = Single-dose i.p. pharmacokinetic study in mice, plasma, four-compartment model; format: in vivo, ICR mice; settings: for maximum plasma concentration: female ICR mice, at first sampling (1 h), LC-MS/MS
Procedure: A four-compartment model best described the disposition of this agent in murine plasma. […] The coefficient of determination (r^2) for the model-predicted concentrations versus observed concentrations was 0.97. […] All model parameters were estimated with excellent precision, as indicated by a standard error of the mean (SEM) of less than 20% for 7 of 8 of the model parameters.
Healthy female ICR mice weighing 20 to 24 g were administered a single dose of CD101 via intraperitoneal (i.p.) injection. Doses of 1, 4, and 16 mg/kg of body weight were studied, utilizing 3 animals per dose level. Whole-blood samples (one sample per animal) were collected at 1, 3, 6, 12, 24, 48, 72, and 96 h postdose. Plasma was collected by centrifugation, and samples were stored at −20°C or below. Samples were analyzed using liquid chromatography with tandem mass spectrometry detection and an AB-SCIEX API 4000 mass spectrometry system. The method used in the analysis was qualified as fit for the purpose: calibration standards were matrix matched, and, for each analytical batch, triplicate calibration standards were included at the beginning of the batch, approximately in the middle, and at the end. Following analysis, quantitation is carried out by a calibration curve comprising analyte/internal standard area ratio versus concentration. Calibration standards ranged from 0.5 mg/liter (lower limit of quantitation [LLOQ]) to 100 mg/liter. Analytical batch acceptance followed the general guidance criterion that standards/quality control should be within ±20% for accuracy (percent nominal concentration) and ≤20% for precision (percent coefficient of variation). For analysis, plasma samples were quenched with acetonitrile (4:1 acetonitrile/plasma ratio) containing diclofenac as the internal standard. Animals were maintained in accordance with the criteria of the American Association for Assessment and Accreditation of Laboratory Animal Care (AAALAC). The pharmacokinetic study was approved by the Animal Research Committee of the William S. Middleton Memorial Veterans Affairs Hospital and the University of Wisconsin.
as §2

[8] = four-compartment model, murine plasma, 1-16 mg/kg i.p.

Q: Which hepatocyte findings [1] does the source give for anidulafungin [reference compound] here?
A: hepatocellular necrosis ranging from mild to moderate

Q: With oritavancin [reference compound] as the compound, how does the terminal half-life [2] read?
A: ~245 h

Q: For `CCCCCOc1ccc(-c2ccc(-c3ccc(C(=O)N[C@H]4C[C@@H](O)[C@@H](OCC[N+](C)(C)C)NC(=O)[C@@H]5[C@@H](O)[C@@H](C)CN5C(=O)[C@H]([C@@H](C)O)NC(=O)[C@H]([C@H](O)[C@@H](O)c5ccc(O)cc5)NC(=O)[C@@H]5C[C@@H](O)CN5C(=O)[C@H]([C@@H](C)O)NC4=O)cc3)cc2)cc1` [CD101] ({pTerphenylCO(4''-OnC5H11)}-[Orn(4R-OH,5R-OCH2CH2NMe3+)]T[Hyp][hTyr(3S-OH,4S-OH)]T[Pro(3S-OH,4S-Me)]; lactam 1-C), which terminal half-life ([2]; humans, healthy volunteers) is on record?
A: ~133 h

Q: What about the hepatocyte findings [1] of the same compound?
A: no changes were observed

Q: What about the “free-drug AUC0-24 of single-dose regimen relative to daily regimen” value ([3]; 2 mg/kg total dose) of the same compound?
A: 7 fold

Q: What about the “AUC0-168 of daily 1 mg/kg regimen relative to 2 mg/kg front-loaded regimen” value [3] of the same compound?
A: approximately 3 fold

Q: What about the “overt signs of toxicities” value [4] of the same compound?
A: No overt signs of toxicities

Q: What about the “modal MIC” value (Candida albicans R303 [5]) of the same compound?
A: 0.125 µg/mL

Q: What about the “log10 CFU reduction from the baseline at 168 h” value (Candida albicans R303 [6]; total 2 mg/kg as single dose (2 mg/kg x 1), kidney burden, neutropenic ICR mice, n = 5) of the same compound?
A: > 2 log10 CFU and 2 log10 CFU

Q: And the “log10 CFU increase from the baseline at 168 h” value (Candida albicans R303 [6]; total 2 mg/kg daily (0.29 mg/kg/day x 7), kidney burden, neutropenic ICR mice, n = 5)?
A: > 1 log10 CFU and 1 log10 CFU

Q: And the “net change in log10 CFU from the baseline at 168 h” value (Candida albicans R303 [6]; total 2 mg/kg twice weekly (1 mg/kg x 2), kidney burden, neutropenic ICR mice, n = 5)?
A: net fungal stasis

Q: What about the “log10 CFU reduction from the baseline at 168 h” value (Candida albicans R303 [6]; total 7 mg/kg i.p., regardless of the fractionation schedule) of the same compound?
A: greater than 2 log10 CFU

Q: And the maximum plasma concentration ([7]; 1 mg/kg i.p. single dose)?
A: 3.97 mg/L

Q: What about the maximum plasma concentration ([7]; 4 mg/kg i.p. single dose) of the same compound?
A: 13.6 mg/L

Q: What about the maximum plasma concentration ([7]; 16 mg/kg i.p. single dose) of the same compound?
A: 52.0 mg/L

Q: What about the “pharmacokinetics over the studied dose range” value ([7]; 1 to 16 mg/kg i.p., mice) of the same compound?
A: linear pharmacokinetics

Q: What about the “Q2 (distributional clearance), final estimate” value [7, 8] of the same compound?
A: 0.255 mL/min/kg

Q: What about the “Q3 (distributional clearance), final estimate” value [7, 8] of the same compound?
A: 5.2 mL/min/kg

Q: What about the “Q4 (distributional clearance), final estimate” value [7, 8] of the same compound?
A: 1.2 mL/min/kg

Q: What about the “V1 (central compartment volume), final estimate” value [7, 8] of the same compound?
A: 0.201 L/kg

Q: And the “V2 (peripheral compartment volume), final estimate” value [7, 8]?
A: 0.871 L/kg

Q: And the “V3 (peripheral compartment volume), final estimate” value [7, 8]?
A: 0.0341 L/kg

Q: And the “V4 (peripheral compartment volume), final estimate” value [7, 8]?
A: 0.165 L/kg

Q: And the CL/F ([7]; mouse, in vivo, ip, four-compartment model, murine plasma, 1-16 mg/kg i.p., read-out: CLt (total clearance), final estimate (converted))?
A: 0.173 mL/min/kg
